Assay results reported in paper PMC9931918, “Conjugation to a cell-penetrating peptide drives the tumour accumulation of the GLP1R antagonist exendin(9-39)” (European Journal of Nuclear Medicine and Molecular Imaging, 2022).

Experiments:
CHL-GLP1R cells = assay: Binding and internalisation assay of 111In-labelled exendin variants on GLP1R-positive cells; type: cell-based, Chinese hamster
in vivo = assay: in vivo; set-up: species or system BALB/c nude mice; details: BALB/c nude, mouse, iv, 20 pmol/mouse, total radioactivity
Method: Mice were injected subcutaneously on the right flank with 0.2 mL of a cell suspension containing 15,000,000 INS-1 cells/mL in RPMI (3,000,000 cells/mouse). When the tumours were 2–5 mm in diameter, mice were randomly divided into groups and the experiment was performed. All mice were intravenously injected with 20 pmol/mouse (0.37 MBq/mouse) of the corresponding radiolabelled exendin variant in approximately 200 μL PBS/0.5% BSA. 12 mice received [^111In]In-DTPA-exendin-4 (referred to as exendin-4), 12 mice received [^111In]In-DTPA-exendin-4-Pen (referred to as exendin-4-Pen), 11 mice received [^111In]In-DTPA-exendin(9-39) (referred to as exendin(9-39) and 11 mice received [^111In]In-DTPA-exendin(9-39)-Pen (referred to as exendin(9-39)-Pen). To determine non-specific uptake, an excess of unlabelled peptide was injected (blocking group). A 100-fold excess of unlabelled DTPA-exendin-4 or DTPA-exendin(9-39) was co-injected (5 or 6 mice per group). Blocking groups were only included at the 4 h timepoint, to reduce the number of mice used as a control. After 1 h and 4 h after injection, mice were euthanized by CO2/O2 asphyxiation. Blood, tumours and relevant tissues (muscle, heart, lung, spleen, pancreas, kidney, liver, stomach, duodenum and colon) of all animals were dissected, weighed and measured in a gamma-counter (2480 Wizard 3”, LKB/Wallace, Perkin-Elmer, Waltham, MA, USA). The percentage injected dose per gram tissue (% ID/g) was determined for each tissue, based on the cpm measured for diluted injection mixtures (standards). For the statistical analysis, the data were log transformed to correct for differences in the intra-group spread and ensure a normal distribution. The difference in tumour uptake between the four compounds was evaluated separately for each timepoint, with a one-way ANOVA and Tukey’s post hoc test. We accepted a type I alpha error of 0.05. The number of animals per group was selected assuming an SD of 10% of the mean, to reach a statistical power of 80% (beta type error = 0.2).

CC[C@H](C)[C@H](NC(=O)[C@H](Cc1ccccc1)NC(=O)[C@H](CC(C)C)NC(=O)[C@H](CCCNC(=N)N)NC(=O)[C@@H](NC(=O)[C@H](C)NC(=O)[C@H](CCC(=O)O)NC(=O)[C@H](CCC(=O)O)NC(=O)[C@H](CCC(=O)O)NC(=O)[C@H](CCSC)NC(=O)[C@H](CCC(N)=O)NC(=O)[C@H](CCCCN)NC(=O)[C@H](CO)NC(=O)[C@H](CC(C)C)NC(=O)[C@@H](N)CC(=O)O)C(C)C)C(=O)N[C@@H](CCC(=O)O)C(=O)N[C@@H](Cc1c[nH]c2ccccc12)C(=O)N[C@@H](CC(C)C)C(=O)N[C@@H](CCCCN)C(=O)N[C@@H](CC(N)=O)C(=O)NCC(=O)NCC(=O)N1CCC[C@H]1C(=O)N[C@@H](CO)C(=O)N[C@@H](CO)C(=O)NCC(=O)N[C@@H](C)C(=O)N1CCC[C@H]1C(=O)N1CCC[C@H]1C(=O)N1CCC[C@H]1C(=O)N[C@@H](CO)C(=O)N[C@@H](CCCNC(=N)N)C(=O)N[C@@H](CCC(N)=O)C(=O)N[C@H](C(=O)N[C@@H](CCCCN)C(=O)N[C@H](C(=O)N[C@@H](Cc1c[nH]c2ccccc12)C(=O)N[C@@H](Cc1ccccc1)C(=O)N[C@@H](CCC(N)=O)C(=O)N[C@@H](CC(N)=O)C(=O)N[C@@H](CCCNC(=N)N)C(=O)N[C@@H](CCCNC(=N)N)C(=O)N[C@@H](CCSC)C(=O)N[C@@H](CCCCN)C(=O)N[C@@H](Cc1c[nH]c2ccccc12)C(=O)N[C@@H](CCCCN)C(=O)N[C@@H](CCCCNC(=O)CN(CCN(CCN(CC(=O)O)CC(=O)O)CC(=O)O)CC(=O)O)C(N)=O)[C@@H](C)CC)[C@@H](C)CC [[111In]In-exendin(9-39)-Pen, metal not drawn]
binding to CHL-GLP1R cells compared with the unconjugated peptide (CHL-GLP1R cells; 30 minutes and 4 hours incubation at 37 °C, approx. 50 pM, acid-releasable fraction): increased binding
internalisation (percentage of the total activity added) (CHL-GLP1R cells; CHL-GLP1R cells, 4 hours incubation at 37 °C, approx. 50 pM 111In-labelled peptide in RPMI-1640 with 0.5% BSA, acid wash then NaOH lysis, γ-counter, mean ± SD of three wells): 17.7 ± 0.5%
tissue uptake at 1 h (in vivo; pancreatic uptake): 2.2 ± 0.3 %ID/g
tissue uptake at 4 h (in vivo; pancreatic uptake): 1.2 ± 0.2 %ID/g
tissue uptake at 1 h (in vivo; tumour accumulation): 8.6 ± 2.2 %ID/g
tissue uptake at 4 h (in vivo; tumour accumulation): 6.6 ± 1.2 %ID/g
